One block for each compound: values may come before it.
How the values were obtained:
Format in all cases: cell-based
human A2A receptor = biological target: T1, human A2A receptor (Homo sapiens, UniProt P29274); experiment: cAMP (HTRF) functional assay, recombinant HEK293 cells expressing human A2A receptor, agonist NECA
T1 construct: expressed in transfected cells; host or cells: HEK293
Experimental: (§1) The functional activities of human A2A, A2B, A1 and A3 receptors were determined by quantification of cAMP, being the second messenger for adenosine receptors.
(§2) Cells were seeded into 384-well plates, forskolin, test compounds and agonists (CPA for A1- and IB-MECA for A3-receptor) were added. After 30 min incubation, HTRF reagents (cAMP dynamic 2, Cis Bio) were added and the cellular cAMP levels were determined using the ENVISION (Perkin Elmer) plate reader. Obtained raw data were normalized against the inhibitor control and the neural control (DMSO) and the normalized data were fitted using GeneData software.

human A2B receptor = biological target: T2, human A2B receptor (Homo sapiens, UniProt P29275); experiment: cAMP (HTRF) functional assay, recombinant HEK293 cells expressing human A2B receptor, agonist NECA
T2 construct: expressed in transfected cells; host or cells: HEK293
T2 sequence (P29275 1-332): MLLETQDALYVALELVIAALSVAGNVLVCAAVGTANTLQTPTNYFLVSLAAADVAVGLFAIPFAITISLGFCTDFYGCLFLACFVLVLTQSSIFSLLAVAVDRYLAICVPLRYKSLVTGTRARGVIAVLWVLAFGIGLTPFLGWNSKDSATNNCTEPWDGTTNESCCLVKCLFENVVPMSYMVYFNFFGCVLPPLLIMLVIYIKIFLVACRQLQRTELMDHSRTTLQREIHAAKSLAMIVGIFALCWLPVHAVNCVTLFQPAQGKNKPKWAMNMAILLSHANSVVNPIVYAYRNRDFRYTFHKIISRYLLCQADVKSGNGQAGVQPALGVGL
Experimental: as §1, §2

human A1 receptor = biological target: T3, human A1 receptor (Homo sapiens, UniProt P30542); experiment: cAMP (HTRF) functional assay, recombinant CHO cells expressing human A1 receptor, forskolin + agonist CPA
T3 construct: expressed in transfected cells; host or cells: CHO
T3 sequence (P30542 1-326): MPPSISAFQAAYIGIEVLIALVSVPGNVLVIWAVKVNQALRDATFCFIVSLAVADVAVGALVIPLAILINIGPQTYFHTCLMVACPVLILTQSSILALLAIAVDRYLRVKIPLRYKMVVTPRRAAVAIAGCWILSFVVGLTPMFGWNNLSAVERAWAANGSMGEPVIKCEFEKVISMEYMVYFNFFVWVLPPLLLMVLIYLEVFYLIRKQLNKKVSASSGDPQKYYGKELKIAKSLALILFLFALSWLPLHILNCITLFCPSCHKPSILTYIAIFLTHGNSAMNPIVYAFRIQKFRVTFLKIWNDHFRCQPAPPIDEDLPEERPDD
Experimental: as §1
(§3) For human A1 and A3 receptors, recombinant CHO cells, expressing either A1 or A3-receptor, were used. As both receptors couple to Gi proteins, the assay protocol was adapted:
as §2

human A3 receptor = biological target: T4, human A3 receptor (Homo sapiens, UniProt P0DMS8); experiment: cAMP (HTRF) functional assay, recombinant CHO cells expressing human A3 receptor, forskolin + agonist IB-MECA
T4 construct: expressed in transfected cells; host or cells: CHO
T4 sequence (P0DMS8 1-318): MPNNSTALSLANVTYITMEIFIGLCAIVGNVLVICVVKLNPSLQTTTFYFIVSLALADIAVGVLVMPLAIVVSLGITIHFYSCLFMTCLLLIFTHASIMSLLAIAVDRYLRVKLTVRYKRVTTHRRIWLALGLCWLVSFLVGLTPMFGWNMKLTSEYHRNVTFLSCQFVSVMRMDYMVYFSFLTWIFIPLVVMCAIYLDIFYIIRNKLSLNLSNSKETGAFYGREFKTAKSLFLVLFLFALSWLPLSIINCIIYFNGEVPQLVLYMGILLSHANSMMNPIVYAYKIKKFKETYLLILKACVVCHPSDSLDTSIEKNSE
Experimental: as §1, §3, §2

T1 sequence (P29274 whole entry): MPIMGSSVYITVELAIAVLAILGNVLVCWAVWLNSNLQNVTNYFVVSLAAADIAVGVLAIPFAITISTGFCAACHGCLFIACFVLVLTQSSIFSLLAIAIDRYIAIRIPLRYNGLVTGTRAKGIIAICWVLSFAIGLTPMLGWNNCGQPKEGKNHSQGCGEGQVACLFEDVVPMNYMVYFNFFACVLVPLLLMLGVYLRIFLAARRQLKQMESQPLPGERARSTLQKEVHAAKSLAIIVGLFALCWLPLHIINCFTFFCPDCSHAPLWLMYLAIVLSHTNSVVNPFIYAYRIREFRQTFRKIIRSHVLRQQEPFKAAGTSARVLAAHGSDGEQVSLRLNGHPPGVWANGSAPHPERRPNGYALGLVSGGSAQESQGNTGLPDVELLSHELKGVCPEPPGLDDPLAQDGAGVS

Compound: COc1ncc(-c2cc(F)ccc2F)c2sc(NC(=O)N3CCC4(CCOCC4)C3)nc12 [compound 210, 8-Oxa-2-aza-spiro[4.5]decane-2-carboxylic acid [7-(2,5-difluoro-phenyl)-4-methoxy-thiazolo[4,5-c]pyridin-2-yl]-amide]
IC50 (human A2A receptor): < 10 nM
IC50 (human A2B receptor): < 100 nM
IC50 (human A1 receptor): > 1000 nM
IC50 (human A3 receptor): > 1000 nM

Compound: COCCOc1cccc(-c2c(F)nc(OC)c3nc(NC(=O)N4CCC5(CCOCC5)C4)sc23)c1 [compound 234, N-{6-fluoro-4-methoxy-7-[3-(2-methoxyethoxy)phenyl]-[1,3]thiazolo[4,5-c]pyridin-2-yl}-8-oxa-2-azaspiro[4.5]decane-2-carboxamide]
IC50 (human A2A receptor): < 10 nM
IC50 (human A2B receptor): < 10 nM
IC50 (human A1 receptor): < 100 nM
IC50 (human A3 receptor): < 100 nM

Compound: COc1ncc(N2CCOCC2)c2sc(NC(=O)C3CC3)nc12 [compound 167, Cyclopropanecarboxylic acid (4-methoxy-7-morpholin-4-yl-thiazolo[4,5-c]pyridin-2-yl)-amide]
IC50 (human A2A receptor): < 10 nM
IC50 (human A2B receptor): < 100 nM
IC50 (human A1 receptor): > 1000 nM
IC50 (human A3 receptor): > 1000 nM

Compound: COCc1ccc(C(=O)Nc2nc3c(OC)ncc(-c4cnn(C)c4)c3s2)cc1 [compound 14]
IC50 (human A2A receptor): < 10 nM
IC50 (human A2B receptor): < 1000 nM
IC50 (human A1 receptor): < 1000 nM
IC50 (human A3 receptor): < 1000 nM

Compound: COc1ccc(-c2cnc(OC)c3nc(NC(=O)N4CCC5(CCOCC5)C4)sc23)c(OC)n1 [compound 239, N-[7-(2,6-dimethoxypyridin-3-yl)-4-methoxy-[1,3]thiazolo[4,5-c]pyridin-2-yl]-8-oxa-2-azaspiro[4.5]decane-2-carboxamide]
IC50 (human A2A receptor): < 100 nM
IC50 (human A2B receptor): > 1000 nM
IC50 (human A1 receptor): > 1000 nM
IC50 (human A3 receptor): > 1000 nM

Compound: COc1ncc(-c2ccccc2)c2sc(NC(=O)N3CC[C@@]4(CCOC4)C3)nc12 [compound 208, (R)-2-Oxa-7-aza-spiro[4.4]nonane-7-carboxylic acid (4-methoxy-7-phenyl-thiazolo[4,5-c]pyridin-2-yl)-amide]
IC50 (human A2A receptor): < 10 nM
IC50 (human A2B receptor): < 100 nM
IC50 (human A1 receptor): > 1000 nM
IC50 (human A3 receptor): > 1000 nM

Compound: COc1ncc(-c2ccccc2)c2sc(NC(=O)c3cnc(C)o3)nc12 [compound 186, 2-Methyl-oxazole-5-carboxylic acid (4-methoxy-7-phenyl-thiazolo[4,5-c]pyridin-2-yl)-amide]
IC50 (human A2A receptor): < 10 nM
IC50 (human A2B receptor): < 100 nM
IC50 (human A1 receptor): < 1000 nM
IC50 (human A3 receptor): < 1000 nM

Compound: COCCOc1cccc(-c2cnc(OC)c3nc(NC(=O)c4cnn(CCOC)c4)sc23)c1 [compound 233, N-{4-methoxy-7-[3-(2-methoxyethoxy)phenylH]-[1,3]thiazolo[4,5-c]pyridin-2-yl}-1-(2-methoxyethyl)-1H-pyrazole-4-carboxamide]
IC50 (human A2A receptor): < 10 nM
IC50 (human A2B receptor): < 10 nM
IC50 (human A1 receptor): < 1000 nM
IC50 (human A3 receptor): < 1000 nM

Compound: COc1ncc(-c2ccccc2)c2sc(NC(=O)c3ccc(C(=O)N(C)C)cc3)nc12 [compound 58, N-(4-Methoxy-7-phenyl-thiazolo[4,5-c]pyridin-2-yl)-N′,N′-dimethyl-terephthalamide]
IC50 (human A2A receptor): < 10 nM
IC50 (human A2B receptor): < 10 nM
IC50 (human A1 receptor): < 1000 nM
IC50 (human A3 receptor): > 1000 nM

Compound: COc1ncc(-c2ccccc2)c2sc(NC(=O)C3CC3)nc12 [compound 187, Cyclopropanecarboxylic acid (4-methoxy-7-phenyl-thiazolo[4,5-c]pyridin-2-yl)-amide]
IC50 (human A2A receptor): < 10 nM
IC50 (human A2B receptor): < 100 nM
IC50 (human A1 receptor): < 1000 nM
IC50 (human A3 receptor): < 1000 nM

The next lines start with the values.

IC50 (human A2A receptor): < 10 nM
IC50 (human A2B receptor): < 100 nM
IC50 (human A1 receptor): < 1000 nM
IC50 (human A3 receptor): > 1000 nM
Compound: COc1ncc(-c2cnn(C)c2)c2sc(NC(=O)c3cnc(C)o3)nc12 [compound 130, 2-Methyl-oxazole-5-carboxylic acid [4-methoxy-7-(1-methyl-1H-pyrazol-4-yl)-thiazolo[4,5-c]pyridin-2-yl]-amide]

IC50 (human A2A receptor): < 10 nM
IC50 (human A2B receptor): < 1000 nM
IC50 (human A1 receptor): > 1000 nM
IC50 (human A3 receptor): > 1000 nM
Compound: COc1ncc(N2CCOCC2)c2sc(NC(=O)N3CC[C@]4(CCOC4)C3)nc12 [compound 17, (5S)-N-[4-methoxy-7-(morpholin-4-yl)-[1,3]thiazolo[4,5-c]pyridin-2-yl]-2-oxa-7-azaspiro[4.4]nonane-7-carboxamide]

IC50 (human A2A receptor): < 10 nM
IC50 (human A2B receptor): < 100 nM
IC50 (human A1 receptor): > 1000 nM
IC50 (human A3 receptor): > 1000 nM
Compound: COc1ncc(-c2ccccc2)c2sc(NC(=O)N3CCC4(CCOCC4)C3)nc12 [compound 53, 8-Oxa-2-aza-spiro[4.5]decane-2-carboxylic acid (4-methoxy-7-phenyl-thiazolo[4,5-c]pyridin-2-yl)-amide]

IC50 (human A2A receptor): < 10 nM
IC50 (human A2B receptor): < 100 nM
IC50 (human A1 receptor): < 1000 nM
IC50 (human A3 receptor): > 1000 nM
Compound: COc1ncc(-c2ccccc2)c2sc(NC(=O)N3CCC4(CCCOC4)C3)nc12 (centres unmarked) [compound 52, 7-Oxa-2-aza-spiro[4.5]decane-2-carboxylic acid (4-methoxy-7-phenyl-thiazolo[4,5-c]pyridin-2-yl)-amide]

IC50 (human A2A receptor): < 10 nM
IC50 (human A2B receptor): < 100 nM
IC50 (human A1 receptor): < 1000 nM
IC50 (human A3 receptor): < 1000 nM
Compound: COc1ncc(-c2ccccc2)c2sc(NC(=O)C3(N)CC3)nc12 [compound 203, 1-Amino-cyclopropanecarboxylic acid (4-methoxy-7-phenyl-thiazolo[4,5-c]pyridin-2-yl)-amide]

IC50 (human A2A receptor): < 10 nM
IC50 (human A2B receptor): < 10 nM
IC50 (human A1 receptor): < 100 nM
IC50 (human A3 receptor): < 1000 nM
Compound: COc1ncc(C2CCOCC2)c2sc(NC(=O)c3cnn(C)c3)nc12 [compound 235, N-[4-methoxy-7-(oxan-4-yl)-[1,3]thiazolo[4,5-c]pyridin-2-yl]-1-methyl-1H-pyrazole-4-carboxamide]

IC50 (human A2A receptor): < 10 nM
IC50 (human A2B receptor): < 100 nM
IC50 (human A1 receptor): > 1000 nM
IC50 (human A3 receptor): > 1000 nM
Compound: COc1ncc(-c2cnn(C)c2)c2sc(NC(=O)N3CC[C@]4(CCOC4)C3)nc12 [compound 173, (S)-2-Oxa-7-aza-spiro[4.4]nonane-7-carboxylic acid [4-methoxy-7-(1-methyl-1H-pyrazol-4-yl)-thiazolo[4,5-c]pyridin-2-yl]-amide]

IC50 (human A2A receptor): < 10 nM
IC50 (human A2B receptor): < 100 nM
IC50 (human A1 receptor): > 1000 nM
IC50 (human A3 receptor): > 1000 nM
Compound: COc1nc(Cl)c(-c2ccccc2)c2sc(NC(=O)N3CCC4(CCOCC4)C3)nc12 [compound 220, 8-Oxa-2-aza-spiro[4.5]decane-2-carboxylic acid (6-chloro-4-methoxy-7-phenyl-thiazolo[4,5-c]pyridin-2-yl)-amide]

IC50 (human A2A receptor): < 10 nM
IC50 (human A2B receptor): < 10 nM
IC50 (human A1 receptor): < 10 nM
IC50 (human A3 receptor): < 1000 nM
Compound: COc1ncc(C2=CCOCC2)c2sc(NC(=O)c3cnn(C)c3)nc12 [compound 238, N-[7-(3,6-dihydro-2H-pyran-4-yl)-4-methoxy-[1,3]thiazolo[4,5-c]pyridin-2-yl]-1-methyl-1H-pyrazole-4-carboxamide]

IC50 (human A2A receptor): < 10 nM
IC50 (human A2B receptor): < 100 nM
IC50 (human A1 receptor): < 1000 nM
IC50 (human A3 receptor): > 1000 nM
Compound: COc1ncc(-c2ccccc2)c2sc(NC(=O)N3CC[C@@]4(CCCOC4)C3)nc12 [compound 204, (S)-7-Oxa-2-aza-spiro[4.5]decane-2-carboxylic acid (4-methoxy-7-phenyl-thiazolo[4,5-c]pyridin-2-yl)-amide]

IC50 (human A2A receptor): < 10 nM
IC50 (human A2B receptor): < 100 nM
IC50 (human A1 receptor): < 1000 nM
IC50 (human A3 receptor): > 1000 nM
Compound: COc1ncc(-c2ccccc2)c2sc(NC(=O)c3ccc(N4C(=O)CCC4=O)cc3)nc12 [compound 213, 4-(2,5-Dioxo-pyrrolidin-1-yl)-N-(4-methoxy-7-phenyl-thiazolo[4,5-c]pyridin-2-yl)-benzamide]

IC50 (human A2A receptor): < 10 nM
IC50 (human A2B receptor): < 100 nM
IC50 (human A1 receptor): < 1000 nM
IC50 (human A3 receptor): < 1000 nM
Compound: COc1ncc(N2CCOCC2)c2sc(NC(=O)c3cnn(C)c3)nc12 [compound 171, 1-Methyl-1H-pyrazole-4-carboxylic acid (4-methoxy-7-morpholin-4-yl-thiazolo[4,5-c]pyridin-2-yl)-amide]

IC50 (human A2A receptor): < 10 nM
IC50 (human A2B receptor): < 100 nM
IC50 (human A1 receptor): > 1000 nM
IC50 (human A3 receptor): > 1000 nM
Compound: COc1ncc(C2CCOCC2)c2sc(NC(=O)c3ccc(C(=O)N(C)C)cc3)nc12 [compound 113, N-[4-Methoxy-7-(tetrahydro-pyran-4-yl)-thiazolo[4,5-c]pyridin-2-yl]-N′,N′-dimethyl-terephthalamide]

From US11186592B2, “Thiazolopyridine derivatives as adenosine receptor antagonists” (MERCK PATENT GMBH, priority 2017, dated 2021)
